Data published in patent US5118705A, “Water soluble salts of purpuromycin and pharmaceutical formulations thereof” (Gruppo Lepetit S.p.A., priority 1990, dated 1992).
Converted amounts (≈) assume the structure as drawn. Where a name gives a salt, the structure may show the parent alone.

Experiments:
[1] = system: Trichomonas vaginalis strain TVL; assay: Activity against Trichomonas vaginalis, two-fold tube dilution method; format: cell-based; conditions: Trichomonas vaginalis; 48 hours at 37° C.; read-out: MIC
Method: Trichomonas vaginalis (applicant's internal code TVL) was grown on Trichomonas Culture Medium Base (Merck) plus 10% heat treated horse serum. Inoculum: approximately 10^5 organisms/ml. Incubation: 48 hours at 37° C.

[2] = system: Candida albicans ATCC 10231; assay: Activity against Candida strains, two-fold dilution method; format: cell-based; conditions: Candida albicans, ATCC10231, 20 h; comparative tests, antibacterial agents; read-out: M.I.C.
Method: (§1) This set of experiments included also one strain each of two other Candida species, Candida tropicalis and Candida kruzei. The M.I.C. were determined by the two-fold dilution method in buffered (0.01 M phosphate buffer, pH 7.4) yeast nitrogen base medium (Difco) supplemented with 1.5 g/liter asparagine in microtiter trays. Inocula were approximately 10^4 colony forming units/ml. Incubation was for 20 h at 30° C. Purpuromycin was dissolved in DMSO and added to the cultures as above.

[3] = system: Candida albicans SKF 2270; assay: as above; format: cell-based; conditions: Candida albicans, SKF2270, 20 h; comparative tests, antibacterial agents; read-out: M.I.C.
Method: as §1

yeasts = conditions: cited from earlier work
[4] = system: Gardnerella vaginalis ATCC 14018 and other 11 clinical isolates; assay: Activity against Gardnerella vaginalis, standard two fold dilution methods
Method: The strains were grown on Casman medium (Difco) plus 5% (v/v) whole rabbit blood and 0.15 (v/v) lysed rabbit blood. Inoculum size: approximately 10^4 colony forming units per spot. Incubation in an anaerobic hood: 48 hours at 37° C.

Stability = format: physicochemical
[5] = conjugate acid of the second basic group; cited from earlier work
[6] = Biological activity (general statement); conditions: formed by hydrolysis of the carbomethoxy group of purpuromycin

## Cc1ncc([N+](=O)[O-])n1CCO [Metronidazole]
[1]
  MIC: 0.25 µg/mL (≈ 1.46 µM)
[2]
  MIC: > 128 µg/mL
[3]
  MIC: > 128 µg/mL
yeasts
  activity against yeasts: not active against yeasts
[4]; Gardnerella vaginalis, read-out: MIC on resistant strains
  MIC: > 32 µg/mL
[4]; MIC 4 mcg/ml, 12 strains tested
  Number of strains with MIC of 4 mcg/ml: 1 strains
[4]; MIC 8 mcg/ml, 12 strains tested
  Number of strains with MIC of 8 mcg/ml: 3 strains
[4]; MIC 16 mcg/ml, 12 strains tested
  Number of strains with MIC of 16 mcg/ml: 4 strains
[4]; MIC 128 mcg/ml, 12 strains tested
  Number of strains with MIC of 128 mcg/ml: 3 strains

## COC(=O)c1cc2cc3c(c(O)c2c(=O)o1)OC1(Cc2c(O)c4c(c(O)c2O1)C(=O)C(OC)=CC4=O)CC3O (stereo not drawn) [arginine salt]
Stability
  stability (in words): not sufficiently stable

## N=C(N)NCCC[C@H](N)C(=O)O [arginine]
[5]
  pK3 value: higher than 13

## COC1=CC(=O)c2c(O)c3c(c(O)c2C1=O)OC1(C3)CC(O)c2cc3cc(C(=O)O)oc(=O)c3c(O)c2O1 (stereo not drawn) [carboxylic acid derivative]
[6]
  activity of degradation product: almost inactive
